# Entries after “also recorded” stand apart in the source; their conditions may differ.
# Columns and labels:
# [1] = test system: zebrafish larvae; assay: Suitability of fluorescent stains for in vivo gut visualisation
# Method: In vivo labelling was achieved by rearing fish in a suspension of 0.05% quercetin (Sigma) for a minimum of 2 hours. To observe gut architecture and motility, larvae were anaesthetised larvae by immersion in 0.2 mg/ml 3-amino benzoic acid ethylester (MS222) (Sigma). Gut architecture and motility can be observed using the FITC and GFP filter sets.
# Visualisation is achieved by the administration of a fluorescent dye to the embryo medium. The dye is swallowed by the fish but not readily absorbed and therefore fills the entire gut.
# When viewed under a fluorescent microscope, the crypts and villi of the gut were apparent as the unstained tissue of the gut wall was highlighted in contrast to the fluorescent medium that filled the gut lumen. In addition, as staining can be performed in vivo, waves of peristalsis were observed (as indicated in the different positions of the gut wall).
# [2] = test system: zebrafish; assay: DMSO tolerance of zebrafish; conditions: in vivo
# Excerpt: Moreover, the inventors have discovered that zebrafish are also DMSO (dimethyl sulphoxide) tolerant. This is important as DMSO is used as a solvent to dissolve many drugs. The inventors have established that zebrafish can tolerate 1% DMSO. Thus, a candidate drug or other test substance may be dissolved in DMSO and administered to zebrafish by adding to the fish water to give a final concentration of DMSO of at least up to 1%. This is employed in various preferred aspects and embodiments of the present invention.
# [3] = test system: zebrafish larvae with PSA-induced IBD; assay: In vivo examination of gut architecture and motility (quercetin labelling) in PSA-induced IBD; conditions: for Rescue of the IBD phenotype: IBD induced with PSA 3 to 5 d.p.f., drug added with PSA from 5 d.p.f.
# [4] = test system: zebrafish larvae with PSA-induced IBD; assay: Histology (haematoxylin and eosin sections) of gut in PSA-induced IBD; type: in vivo
# [5] = test system: TNFα; conditions: co-administration with PSA from 3 to 8 d.p.f.
compound,measurement,setting,value
O=c1c(O)c(-c2ccc(O)c(O)c2)oc2cc(O)cc(O)c12 [quercetin],Toxicity as in vivo gut stain,[1],low toxicity
"C[S+](C)[O-] [DMSO, dimethyl sulphoxide]",Tolerated DMSO concentration in fish water,[2],1%
"Nc1ccc(O)c(C(=O)O)c1 [5-ASA, 5-amino salicylic acid]",Rescue of the IBD phenotype,[3],Rescue of the IBD phenotype was seen
same,Rescue of the IBD phenotype,[3]; listed as salicylic acid,rescue of the disease phenotype
same,Effect when administered after the induction of disease changes,[4]; drug given after PSA induction,effective when administered after the induction of disease changes
same,Prevention/rescue of disease changes when co-administered with PSA,"[4]; effective dose co-administered with PSA, histological analysis",able to prevent/rescue disease changes
O=C1CCC(N2C(=O)c3ccccc3C2=O)C(=O)N1 (stereo not drawn) [thalidomide],Rescue of the in vivo disease phenotype,"[3]; co-administration with PSA from 3 to 8 d.p.f., observed at 8 d.p.f.",failed to rescue the in vivo disease phenotype; also recorded: neither rescues the disease changes
same,TNFα expression,[5],down-regulation of TNFα expression
same,Rescue / improvement in gut histology,[4]; co-administration with PSA from 3 to 8 d.p.f.,failed to show improvement; also recorded: neither rescues the disease changes

# From patent US20060233709A1, “Method for identifying novel treatments of inflammatory disease in the gut” (priority 2003, published 2006)
